How the values were obtained:
[1] = test system: Hutu 80 human epithelial duodenum adenocarcinoma cell line; test: Proliferation assay by real time live cell imaging (Incucyte), Hutu 80; format: cell-based; details: for effect on cancer cell proliferation, ligand not bound to iron: ligand-only control; for effect on cancer cell proliferation, ligand not bound to iron / effect on cell proliferation: 72 h; for effect on cell proliferation: iron compounds, 5 or 10% FBS, at concentrations predicted in gut lumen with iron supplementation
Experimental: (§1) FIG. 2: Inhibition of cell proliferation in the Hutu 80 human epithelial duodenum adenocarcinoma cell line with different iron compounds as assessed by real time live cell imaging (Incucyte™) Cells were treated for 72 h with the indicated iron compounds in complete growth media containing 5% FBS (A) or 10% FBS (B), the corresponding ‘ligand-only’ controls are shown in panels C and D. Normalised cell proliferation corresponds to the area under the proliferation curve for cells grown in media supplemented with each compound divided by the area under the curve for cells grown in media alone (i.e. without any of the supplemented compounds). Data are presented as mean with SEM (n=2 independent experiments with 3 replicates for each experiment).
(§2) A stock solution of ferric citrate (FeCitrate) 8 mM [Fe] was produced by adding citric acid to ferric chloride on a 1:1 molar ratio. Ferric trimaltol (FTMB) was produced from iron hydroxides and maltol, and the stock solution of circa 8 mM [Fe] was produced by dissolving it in ultrapure water. All stock solutions were filter sterilised (0.2 μm).
(§3) Three different epithelial cancer cell lines were used: colorectal adenocarcinoma [Caco2 (ATCC) and HT29(ECAAC)] and duodenum adenocarcinoma [Hutu 80 (ATCC)]. The cells were grown in an incubator at 37° C. and an atmosphere of 5% CO2 and 95% air at a relative humidity of approximately 95%. The cancer cells were grown in Gibco® MEM supplemented with 5 or 10% foetal bovine serum (FBS) as stated, 1% penicillin/streptomycin (10.000 Units/ml Penicillin, 10.000 μg/ml Streptomycin) and 1% fungizone (Amphotericin B, 250 μg/ml).
(§4) Working solutions of 2 mM [Fe] for each iron compound were prepared fresh on the day of the experiment by diluting the stock solutions of the different iron materials in complete cell growth medium and these 2 mM solutions were used in the serial dilutions to achieve the 8 different concentrations for the proliferation assay (0.89, 0.49, 0.27, 0.15, 0.08, 0.05, 0.026, 0.015) in 96-well ImageLock cell culture plates. A control condition containing only complete growth medium without any iron compound added was also tested. The cells were seeded at a density of 10,000-20,000 cells/well. The plates were incubated in a Live Content Imaging Incubator (Incucyte ZOOM, Essen BioScience Ltd., UK) and images and confluence data were acquired every 3 hours for 72 hours post-seeding. Within each experiment each iron concentration was tested in triplicate wells.
(§5) The plot of confluence (%) vs time (h) was obtained for each iron compound and concentration. The area under the curve (AUC) was calculated and plotted against the concentration for each test compound or the control. The AUC for each iron compound was normalised against that of the control (i.e. complete growth medium alone).

[2] = test system: HT29 human epithelial colorectal adenocarcinoma cell line; test: Proliferation assay by real time live cell imaging (Incucyte), HT29; format: cell-based; details: for effect on cancer cell proliferation, ligand not bound to iron: ligand-only control; for effect on cancer cell proliferation, ligand not bound to iron / effect on cell proliferation: 72 h; for effect on cell proliferation: iron compounds, 5 or 10% FBS, at concentrations predicted in gut lumen with iron supplementation
Experimental: FIG. 3: Inhibition of cell proliferation in the HT29 human epithelial colorectal adenocarcinoma cell line with the different iron compounds as assessed by real time live cell imaging (Incucyte™). Conditions were as above in the legend to FIG. 2.
as §2, §3, §4, §5

intestinal cancer = details: animal models; cited from earlier work
[3] = patients with inflammatory bowel disease; cited from earlier work
[4] = test system: Caco2 human epithelial colorectal adenocarcinoma cell line; test: Proliferation assay by real time live cell imaging (Incucyte), Caco2; format: cell-based; details: for effect on cell proliferation: iron compounds, 5 or 10% FBS, at concentrations predicted in gut lumen with iron supplementation
Experimental: as §1, with “1. […]” for “2: Inhibition of cell proliferation in the Hutu 80 human epithelial duodenum adenocarcinoma cell line with different iron compounds as assessed by real time live cell imaging (Incucyte™)”, “(n=3” for “(n=2”
as §2, §3, §4, §5

[5] = review of real time-recorded cell images, concentration as iron

Compound	effect on cancer cell proliferation, ligand not bound to iron [1]	effect on cancer cell proliferation, ligand not bound to iron [2]	effect on cell proliferation [1]	effect on cell proliferation [2]	effect on intestinal cancer (intestinal cancer)	effect on cell proliferation ([4]; 72 h)	also measured
O=C(O)CN(CCN(CC(=O)O)CC(=O)O)CC(=O)O [EDTA]	moderate inhibition	moderate inhibition	–	–	–	–	–
O=C([O-])CN(CCN(CC(=O)[O-])CC(=O)[O-])CC(=O)[O-].[Fe+3].[Na+] [ferric EDTA, ferric EDTA sodium salt]	–	–	promoted proliferation	promoted proliferation	enhance intestinal cancer	–	–
Cc1occc(=O)c1[O-].Cc1occc(=O)c1[O-].Cc1occc(=O)c1[O-].[Fe+3] [ferric trimaltol]	–	–	inhibited cancer cell proliferation	inhibited cancer cell proliferation	–	inhibited cancer cell proliferation	iron concentration at which cells were non-proliferative [1, 5]: 400 µM; iron concentration at which cells were poorly proliferating [1, 5]: 150 µM; iron concentration at which cells were non-proliferative [2, 5]: 80 µM; iron concentration at which cells were poorly proliferating [2, 5]: 50 µM; correction of iron deficiency anaemia [3]: effectively delivers iron to correct iron deficiency anaemia; iron concentration at which cells were non-proliferative [4, 5]: 80 µM; iron concentration at which cells were poorly proliferating [4, 5]: 50 µM
O.O.O.O.O.O.O.O=S(=O)([O-])[O-].[Fe+2] [ferrous sulphate, Ferrous sulphate heptahydrate]	–	–	promoted proliferation	promoted proliferation	–	–	–
Cc1occc(=O)c1O [maltol, 3-Hydroxy-2-methyl-4H-pyran-4-one]	moderate inhibition	moderate inhibition	–	–	–	–	effect on cancer cell proliferation, ligand not bound to iron ([4]; ligand-only control, 72 h): moderate inhibition
ferric citrate	–	–	promoted proliferation	promoted proliferation	enhance intestinal cancer	promoted proliferation	–

— patent publication US11406664B2, “Ferric maltol compositions for use in the treatment or prevention of cancer and tumours” (Shield TX (UK) Limited, priority 2016, dated 2022)
